In ChEMBL document CHEMBL3044613, “Insecticidal and Neuroblocking Activities of Thiacloprid and Its Acyclic Analogues and Their Related Cyanoguanidine Derivatives” (J Pestic Sci, 2002):
Activity calls are given as the source filed them. No cut-off for these calls is given here.

Tests used:
[1] = Octanol-water partition coefficient, log P of the compound at 23 degC by shake flask method; assay type: physicochemical
Periplaneta americana [2] = experiment: Insecticidal activity against Periplaneta americana (American cockroach) assessed as killing compound injected into abdomen of cockroach after 24 hr in presence of 50 ug piperonyl butoxide oxidative metabolism inhibitor and 50 ug propargyl propyl benzenephosphonate inhibitor of hydrolytic; assay type: functional
Periplaneta americana [3] = experiment: Insecticidal activity against Periplaneta americana (American cockroach) assessed as neuroblocking concentration; assay type: functional
Periplaneta americana [4] = experiment: Insecticidal activity against Periplaneta americana (American cockroach) assessed as killing compound injected into abdomen of cockroach after 24 hr; assay type: functional
Periplaneta americana [5] = experiment: Insecticidal activity against Periplaneta americana (American cockroach) assessed as increase in frequency of impulses in nerve preparation measured immediately after treatment at 10^-5 M by electrophysiological method; assay type: functional, organism-based
Periplaneta americana [6] = experiment: Insecticidal activity against Periplaneta americana (American cockroach) assessed as killing compound injected into abdomen of cockroach after 24 hr in presence of 50 ug piperonyl butoxide oxidative metabolism inhibitor; assay type: functional
Periplaneta americana [7] = experiment: Insecticidal activity against Periplaneta americana (American cockroach) assessed as killing compound injected into abdomen of cockroach after 24 hr in presence of 50 ug propargyl propyl benzenephosphonate inhibitor of hydrolytic metabolism of tetramethrin pyrethroid; assay type: functional

Structure (SMILES)	logP [1]	MLD (Periplaneta americana [2])	Activity (Periplaneta americana [3])	MLD (Periplaneta americana [4])	Activity (Periplaneta americana [5])	MLD (Periplaneta americana [6])	MLD (Periplaneta americana [7])
CN/C(=N\C#N)NCc1ccc(Cl)nc1	0.84	8.9 nmol	110 µM	>180 nmol	Active	180 nmol	18 nmol
CN(C)/C(=N\C#N)N(C)Cc1ccc(Cl)nc1	0.66	20 nmol	>400 µM	320 nmol		200 nmol	32 nmol
CS/C(=N\C#N)NCc1ccc(Cl)nc1	1.27	0.66 nmol	1.7 µM	>83 nmol		21 nmol	0.83 nmol
CN/C(=N\C#N)N(C)Cc1ccc(Cl)nc1	0.78	54 nmol	>170 µM	68 nmol			
O=[N+]([O-])/N=C1\NCCN1Cc1ccc(Cl)nc1 [IMIDACLOPRID]	0.6	0.07 nmol	2.3 µM	1.1 nmol		0.55 nmol	0.19 nmol
N#C/N=C(\NCc1ccccc1)NCc1ccc(Cl)nc1		66 nmol	150 µM	>66 nmol			
CN(Cc1ccc(Cl)nc1)/C(=N/C#N)NCc1ccccc1	1.32	6.3 nmol	150 µM	81 nmol		25 nmol	8.1 nmol
CN(Cc1ccc(Cl)nc1)/C(N)=N/C#N	0.71	1.2 nmol	9.6 µM	22 nmol		14 nmol	0.71 nmol
CN(C)/C(=N\C#N)NCc1ccc(Cl)nc1	0.66	140 nmol	>170 µM	>170 nmol			
CCN/C(=N\C#N)N(C)Cc1ccc(Cl)nc1	1.02	40 nmol	>160 µM	26 nmol			
N#C/N=C1\SCCN1Cc1ccc(Cl)nc1 [THIACLOPRID]	1.2	0.21 nmol	2.6 µM	21 nmol		5.9 nmol	0.46 nmol
CS/C(=N\C#N)N(C)Cc1ccc(Cl)nc1	1.4	2.5 nmol	6 µM	160 nmol		71 nmol	6.3 nmol
CCN/C(=N\C#N)NCc1ccc(Cl)nc1	0.86	>170 nmol	>170 µM	>170 nmol			
